From US12653775B2, “Canine topical formulations and methods thereof” (priority 2023, dated 2026)

Tests used:
[1] = tested on: Methicillin-resistant Staphylococcus pseudintermedius (MRSP) clinical isolate biofilm; experiment: Minimum biofilm eradication concentration (MBEC) assay, Calgary Biofilm Device; assay type: cell-based
Description: (§1) Minimum biofilm eradication concentration (MBEC) values provide estimates on the concentration of an antimicrobial product required to kill bacterial biofilm.
(§2) The CBD plate was incubated with
(§3) All test articles were tested in triplicate.

[2] = tested on: P. aeruginosa PAE 1103 (multi-drug resistant clinical isolate) biofilm; assay type: cell-based, Pseudomonas aeruginosa; settings: MDR P. aeruginosa; TP1 undiluted, micronized silver at lowest concentration 0.05% v/v
Description: as §1, §2, §3

[3] = tested on: biofilms of Pseudomonas aeruginosa; experiment: In vitro biofilm eradication study; assay type: cell-based
[4] = tested on: biofilms of S. pseudintermedius; experiment: In vitro biofilm eradication study; assay type: cell-based

Substance	MBEC ([1]; MRSP clinical isolate biofilm, treated 24 hours at 35° C.) [µg/mL]	biofilm eradication (in words) ([1]; MRSP, TP1 undiluted, micronized silver at lowest concentration 0.05% v/v)	biofilm eradication (in words) [2]	biofilm eradication (in words) [3]	biofilm eradication (in words) [4]
Gentamicin [reference compound]	0.25				
Silver ions		effective in eradicating the biofilms	effective in eradicating the biofilms	effective in eradicating the biofilms	effective in eradicating the biofilms
